Measured values: patent US8778303B2, “99mTc-labeled 19 amino acid containing peptide for use as phosphatidylethanolamine binding molecular probe and radiopharmaceutical” (The Medical College of Wisconsin, Inc., priority 2008, dated 2014)
Where no end group is shown, it is not given here.

B1: ^99mTc-HYNIC-Duramycin (peptide)
peptide: CKQSCSFGPFTFVCDGNTK
modifications: thioether bonds between positions 1-18, 4-14 and 5-11; amide bond between positions 6 and 19; one HYNIC (6-hydrazinopyridine-3-carboxylic acid) moiety on either Cys-1 or Lys-2, chelating 99mTc with tricine and TPPTS co-ligands
notes: Lantibiotic peptide, cross-linked; also called 99mTc-Duramycin; radiolabeled Duramycin

Legend:
[1] = liposomes; bind PtdE at equal-molar ratio; cited from earlier work
[2] = Cysteine challenge stability test; type: physicochemical; conditions: cysteine-to-Duramycin ratio of 100:1
Description: HPLC method 2. Jupiter C18 column (90 Å pore size, 250×4.6 mm) was used with a buffered mobile phase system consisting of phosphate buffer (10 mM sodium phosphate, pH 6.7) and acetonitrile at a flow rate of 1.0 ml/min at room temperature. A baseline of 5 min at 90% buffer A (phosphate buffer, pH6.7) and 10% buffer B (acetonitrile) was followed by a linear gradient to 10% buffer A and 90% buffer B in 30 min. The level of radioactivity in the HPLC elute was monitored by gamma counting at an energy window of 140±15 keV.
HYNIC-Duramycin was labeled with ^99mTc using the tricine-phosphine co-ligand system. Specifically, 15 μg of HYNIC-Duramycin was mixed with 40 mg of tricine, 1 mg of TPPTS and 20 μg SnCl2 in 0.8 ml at pH 5.3. The labeling was initiated with the addition of about 1 mCi of ^99mTc. The incubation was allowed to proceed for 40 min at room temperature. The final radiopharmaceutical, ^99mTc-HYNIC-Duramycin, was analyzed and purified using HPLC method 2. After purification, acetonitrile was removed by evaporation under nitrogen, and ^99mTc-HYNIC-Duramycin was reconstituted in saline for usage. ^99mTc-HYNIC-Duramycin^1 was synthesized in the same fashion. For stability tests, cysteine challenge was carried out at a cysteine-to-^99mTc-Duramycin ratio of 100 to 1, in 0.01 mM phosphate buffer (pH 6.8) for 2 hr at room temperature. The sample was analyzed with radioHPLC (method 2).

[3] = literature (McNulty 2003); cited from earlier work
[4] = humans, including patients with Cystic Fibrosis; cited from earlier work
rat serum albumin = rat serum albumin (rat, UniProt P02770 25-608); assay: radioHPLC analysis of the tracer in the presence of rat serum albumin
Sequence of rat serum albumin (P02770 25-608 limits assumed): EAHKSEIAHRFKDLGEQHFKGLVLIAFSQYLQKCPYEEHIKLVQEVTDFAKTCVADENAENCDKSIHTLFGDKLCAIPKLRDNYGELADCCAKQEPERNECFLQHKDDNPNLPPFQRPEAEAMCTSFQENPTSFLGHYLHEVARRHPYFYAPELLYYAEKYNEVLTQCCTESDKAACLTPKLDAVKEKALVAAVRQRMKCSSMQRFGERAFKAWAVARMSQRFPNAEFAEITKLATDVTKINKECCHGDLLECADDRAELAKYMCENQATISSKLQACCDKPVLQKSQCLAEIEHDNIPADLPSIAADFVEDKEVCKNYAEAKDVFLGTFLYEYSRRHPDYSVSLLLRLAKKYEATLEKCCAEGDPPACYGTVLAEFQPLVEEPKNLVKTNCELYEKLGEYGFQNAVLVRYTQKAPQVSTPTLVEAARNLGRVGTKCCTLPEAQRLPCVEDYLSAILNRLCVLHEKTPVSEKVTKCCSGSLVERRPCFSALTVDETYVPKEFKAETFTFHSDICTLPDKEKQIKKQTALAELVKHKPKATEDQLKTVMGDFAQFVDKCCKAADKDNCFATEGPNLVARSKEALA

Row | Molecule | dissociation constant [1] | radioactivity associated with the peptide diminished/reduced in cysteine challenge [2] [%] | hepatic retention [3] | toxicity and immunogenicity in clinical testing [4] | binding result (rat serum albumin)
1 | 19-amino acid peptide produced by Streptoverticillium cinnamoneus, CKQSCSFGPFTFVCDGNTK (SEQ ID NO 1), binds PtdE [Duramycin] | nanomolar range | 90 | retained for an extended duration (e.g., many days) in the liver without complete washout | lack of significant toxicity and immunogenicity | 
2 | homolog of Duramycin with Arg replacing Lys at position two, CRQSCSFGPFTFVCDGNTK (SEQ ID NO 2) (not fully specified (bridges); ends and bridges not checked; also: lanthionine bridges, places not given here; listed as Streptoverticillium cinnamoneus) [Cinnamycin] | nanomolar range |  |  |  | 
3 | B1 |  |  |  |  | no binding
